Measured values from patent publication US20140348865A1, “[…] ON AN HIV-1 V1V2 SITE-OF-VULNERABILITY” (The United States of America, as represented by the …, priority 2011, published 2014).

How the values were obtained:
PG9 = test: ELISA of recombinant gp120 monomers with PG9; assay type: binding, human; conditions: gp120 monomer of the named strain
Fab PG9 = test: Saturation transfer difference NMR of glycan binding to PG9; design: species or system human; conditions: for interaction with PG9 by STD NMR: 1.5 mM glycan, 15 μM Fab PG9
Excerpt: FIGS. 6A-6B illustrate two glycans and a strand comprise a V1V2 site-of-vulnerability. Glycan, electrostatic, and sequence-independent interactions allow PG9 to recognize a glycopeptide site on V1V2. A, Site characteristics in CAP45 strain of HIV-1. Glycans 160 and 156 (173 with ZM109) are highlighted in light grey, and strands B and C are highlighted in dark grey, with the rest of V1V2 in semi-transparent white. The interactive surface of V1V2 with PG9 is shown, colored according the local electrostatic potential as in FIG. 5B. The contribution of each structural element to that surface is provided as a percentage of the total. […] C, Langmuir binding curve used to obtain the KD a function of glycan concentration (A signals correspond to N-acetyl protons, which are shown in the boxed area of the upper panel). D, Stacked STD NMR spectra as a function of Man5GlcNAc2-Asn concentration.
FIG. 25 illustrates binding of GlcNAc2 to PG9 by NMR. STD (lower trace) and reference (upper trace) NMR spectra of 1.5 mM GlcNAc2 in the presence of 15 μM Fab PG9.
FIG. 26 illustrates binding of mannopentaose to PG9 by NMR. STD (lower trace) and reference (upper trace) NMR spectra of 1.5 mM mannopentaose (structure shown above) in the presence of 15 μM Fab PG9.
All NMR experiments were carried out at 298 K on Bruker avance 600 or avance 500 instruments equipped with a triple resonance cryo-probe incorporating gradients in z-axis. 1D STD spectra were acquired by selectively irradiating at −1 ppm and +40 ppm as on- and off-resonance frequencies, respectively, using a train of 50 ms Gaussian-shaped radio frequency pulses separated by 1 ms delays and an optimized power level of 57 db. During NMR experiments water suppression was achieved by binomial 3-9-19 pulse sequence and protein resonances were suppressed by applying 10 ms T1ρ filter. Samples were prepared in 20 mM sodium phosphate buffer containing 50 mM sodium chloride at pH 6.8. The NMR data were processed and analyzed by using TOPSPIN 2.1. […]

ZM53: gp120 monomer of HIV-1 Clade C strain ZM53, SEQ ID NO: 4
PG9 recognition in the gp120 monomer context (PG9): retained PG9 recognition

16055: gp120 monomer of HIV-1 Clade C strain 16055, SEQ ID NO: 6 [compound 16055]
PG9 recognition in the gp120 monomer context (PG9): retained PG9 recognition

CC(=O)N[C@H]1[C@H](O[C@H]2[C@H](O)[C@@H](NC(C)=O)C(O)O[C@@H]2CO)O[C@H](CO)[C@@H](O)[C@@H]1O (some centres unmarked) [(N-acetylglucosamine)2]
interaction with PG9 by STD NMR (Fab PG9): not observed

CAP45: gp120 monomer of HIV-1 Clade C strain CAP45, SEQ ID NO: 3
PG9 recognition in the gp120 monomer context (PG9): retained PG9 recognition

CC(=O)N[C@@H]1[C@@H](O)[C@H](O[C@@H]2O[C@H](CO)[C@@H](O[C@@H]3O[C@H](CO[C@H]4O[C@H](CO[C@H]5O[C@H](CO)[C@@H](O)[C@H](O)[C@@H]5O)[C@@H](O)[C@H](O[C@H]5O[C@H](CO)[C@@H](O)[C@H](O)[C@@H]5O)[C@@H]4O)[C@@H](O)[C@H](O[C@H]4O[C@H](CO)[C@@H](O)[C@H](O)[C@@H]4O)[C@@H]3O)[C@H](O)[C@H]2NC(C)=O)[C@@H](CO)O[C@H]1NC(=O)C[C@H](N)C(=O)O [Asn-(N-actylglucosamine)2(mannose)5]
Kd (Fab PG9; titration series, Langmuir binding curve, read-out: affinity for PG9): 1.6 ± 0.9 mM

CC(=O)N[C@H]1[C@H](O[C@H]2[C@H](O)[C@@H](NC(C)=O)C(O)O[C@@H]2CO)O[C@H](CO)[C@@H](O[C@@H]2O[C@H](CO[C@H]3O[C@H](CO[C@H]4O[C@H](CO)[C@@H](O)[C@H](O)[C@@H]4O)[C@@H](O)[C@H](O[C@H]4O[C@H](CO)[C@@H](O)[C@H](O)[C@@H]4O)[C@@H]3O)[C@@H](O)[C@H](O[C@H]3O[C@H](CO)[C@@H](O)[C@H](O)[C@@H]3O)[C@@H]2O)[C@@H]1O (some centres unmarked) [oligomannose-5]
interaction with PG9 by STD NMR (Fab PG9): weak interactions

TRJO: gp120 monomer of HIV-1 Clade B strain TRJO, SEQ ID NO: 7
PG9 recognition in the gp120 monomer context (PG9): retained PG9 recognition

ZM109: gp120 monomer of HIV-1 Clade C strain ZM109, SEQ ID NO: 2
PG9 recognition in the gp120 monomer context (PG9): retained PG9 recognition
